Reference: ChEMBL document CHEMBL1275577, “Study of the in vitro activities of rifaximin and comparator agents against 536 anaerobic intestinal bacteria from the perspective of potential utility in pathology involving bowel flora” (Antimicrob Agents Chemother, 2009)

Columns and labels:
Format in all cases: functional
Prevotella corporis = assay: Antimicrobial activity against Prevotella corporis by Wadsworth agar dilution method in presence of beta-lactamase inhibitor Sulbactam
Eubacterium limosum = assay: Antimicrobial activity against Eubacterium limosum by Wadsworth agar dilution method in presence of beta-lactamase inhibitor Sulbactam
[1] = test system: Lactobacillus catenaformis; assay: Antimicrobial activity against Lactobacillus catenaformis by Wadsworth agar dilution method in presence of beta-lactamase inhibitor Sulbactam; conditions: Eggerthia catenaformis
Eubacterium callanderi = assay: Antimicrobial activity against Eubacterium callanderi by Wadsworth agar dilution method in presence of beta-lactamase inhibitor Sulbactam
[2] = test system: Bacteroides thetaiotaomicron; assay: Antimicrobial activity against Bacteroides thetaiotaomicron by Wadsworth agar dilution method in presence of beta-lactamase inhibitor Sulbactam
Eubacterium rectale = assay: Antimicrobial activity against Eubacterium rectale by Wadsworth agar dilution method in presence of beta-lactamase inhibitor Sulbactam; conditions: Agathobacter rectalis
[3] = Antimicrobial activity against Bifidobacterium pseudocatenulatum by Wadsworth agar dilution method in presence of beta-lactamase inhibitor Sulbactam
Clostridium nexile = assay: Antimicrobial activity against Clostridium nexile by Wadsworth agar dilution method in presence of beta-lactamase inhibitor Sulbactam; conditions: Faecalimonas nexilis
Clostridium beijerinckii = assay: Antimicrobial activity against Clostridium beijerinckii by Wadsworth agar dilution method in presence of beta-lactamase inhibitor Sulbactam
Flavonifractor plautii = assay: Antimicrobial activity against Clostridium orbiscindens by Wadsworth agar dilution method in presence of beta-lactamase inhibitor Sulbactam
Clostridium sp. = assay: Antimicrobial activity against Clostridium sp. by Wadsworth agar dilution method in presence of beta-lactamase inhibitor Sulbactam
[4] = test system: Parabacteroides goldsteinii; assay: Antimicrobial activity against Parabacteroides goldsteinii by Wadsworth agar dilution method in presence of beta-lactamase inhibitor Sulbactam
Clostridium cocleatum = assay: Antimicrobial activity against Clostridium cocleatum by Wadsworth agar dilution method in presence of beta-lactamase inhibitor Sulbactam; conditions: Thomasclavelia cocleata
Clostridioides difficile = assay: Antimicrobial activity against Clostridium difficile by Wadsworth agar dilution method in presence of beta-lactamase inhibitor Sulbactam
Desulfovibrio vulgaris = assay: Antimicrobial activity against Desulfovibrio vulgaris by Wadsworth agar dilution method in presence of beta-lactamase inhibitor Sulbactam; conditions: Nitratidesulfovibrio vulgaris
[5] = test system: Lacticaseibacillus rhamnosus; assay: Antimicrobial activity against Lactobacillus rhamnosus by Wadsworth agar dilution method in presence of beta-lactamase inhibitor Sulbactam
Peptoniphilus harei = assay: Antimicrobial activity against Peptoniphilus harei by Wadsworth agar dilution method in presence of beta-lactamase inhibitor Sulbactam
Lactobacillus sp. = assay: Antimicrobial activity against Lactobacillus sp. by Wadsworth agar dilution method in presence of beta-lactamase inhibitor Sulbactam
[6] = test system: Propionibacterium propionicum; assay: Antimicrobial activity against Propionibacterium propionicum by Wadsworth agar dilution method in presence of beta-lactamase inhibitor Sulbactam; conditions: Arachnia propionica
Clostridium tertium = assay: Antimicrobial activity against Clostridium tertium by Wadsworth agar dilution method in presence of beta-lactamase inhibitor Sulbactam
Lactobacillus jensenii = assay: Antimicrobial activity against Lactobacillus jensenii by Wadsworth agar dilution method in presence of beta-lactamase inhibitor Sulbactam
Schaalia meyeri = assay: Antimicrobial activity against Actinomyces meyeri by Wadsworth agar dilution method in presence of beta-lactamase inhibitor Sulbactam
Clostridium fallax = assay: Antimicrobial activity against Clostridium fallax by Wadsworth agar dilution method in presence of beta-lactamase inhibitor Sulbactam
Clostridium butyricum = assay: Antimicrobial activity against Clostridium butyricum by Wadsworth agar dilution method in presence of beta-lactamase inhibitor Sulbactam
Clostridium scindens = assay: Antimicrobial activity against Clostridium scindens by Wadsworth agar dilution method in presence of beta-lactamase inhibitor Sulbactam
Bacteroides caccae = assay: Antimicrobial activity against Bacteroides caccae by Wadsworth agar dilution method in presence of beta-lactamase inhibitor Sulbactam
[7] = test system: Fusobacterium necrophorum; assay: Antimicrobial activity against Fusobacterium necrophorum by Wadsworth agar dilution method in presence of beta-lactamase inhibitor Sulbactam

CC1(C)S[C@@H]2[C@H](NC(=O)[C@H](N)c3ccccc3)C(=O)N2[C@H]1C(=O)O [AMPICILLIN]
0.5 µg/mL: MIC50 (Prevotella corporis)
4 µg/mL: MIC90 (Prevotella corporis) | MIC50 [2] | MIC90 (Flavonifractor plautii) | MIC90 (Clostridioides difficile) | MIC50 (Desulfovibrio vulgaris) | MIC90 [7]
32 µg/mL: MIC90 [4] | MIC90 (Desulfovibrio vulgaris) | MIC90 (Bacteroides caccae)
0.25 µg/mL: MIC (Eubacterium limosum) | MIC50 (Eubacterium limosum) | MIC [1] | MIC50 [1] | MIC (Eubacterium callanderi) | MIC50 (Eubacterium callanderi) | MIC (Eubacterium rectale) | MIC50 (Eubacterium rectale) | MIC [3] | MIC50 [3] | MIC (Clostridium nexile) | MIC50 (Clostridium nexile) | MIC (Clostridium beijerinckii) | MIC50 (Clostridium beijerinckii) | MIC (Clostridium sp.) | MIC50 (Clostridium sp.) | MIC (Clostridium cocleatum) | MIC50 (Clostridium cocleatum) | MIC [5] | MIC50 [5] | MIC (Peptoniphilus harei) | MIC50 (Peptoniphilus harei) | MIC (Lactobacillus sp.) | MIC50 (Lactobacillus sp.) | MIC [6] | MIC50 [6] | MIC (Clostridium tertium) | MIC50 (Clostridium tertium) | MIC (Lactobacillus jensenii) | MIC50 (Lactobacillus jensenii) | MIC (Schaalia meyeri) | MIC50 (Schaalia meyeri) | MIC (Clostridium fallax) | MIC50 (Clostridium fallax) | MIC (Clostridium butyricum) | MIC50 (Clostridium butyricum) | MIC (Clostridium scindens) | MIC50 (Clostridium scindens)
2 µg/mL: MIC90 (Eubacterium limosum) | MIC90 [1] | MIC90 (Eubacterium callanderi) | MIC90 (Eubacterium rectale) | MIC90 [3] | MIC (Flavonifractor plautii) | MIC50 (Flavonifractor plautii) | MIC50 (Clostridioides difficile) | MIC90 [5] | MIC90 (Peptoniphilus harei) | MIC90 (Lactobacillus sp.) | MIC90 [6] | MIC90 (Lactobacillus jensenii) | MIC90 (Schaalia meyeri)
1 µg/mL: MIC90 (Clostridium nexile) | MIC90 (Clostridium beijerinckii) | MIC90 (Clostridium sp.) | MIC90 (Clostridium cocleatum) | MIC90 (Clostridium tertium) | MIC90 (Clostridium fallax) | MIC90 (Clostridium butyricum) | MIC90 (Clostridium scindens) | MIC50 [7]
16 µg/mL: MIC90 [2] | MIC50 [4] | MIC50 (Bacteroides caccae)
